Entries after “also recorded” stand apart in the source; their conditions may differ.
How the values were obtained:
Type in all cases: cell-based
PSA = PSA protein expression by ELISA in C4-2 cells overexpressing AR-V7; settings: C4-2-V7 cells, FIG. 3; for PSA expression: compound alone, ELISA; for enzalutamide-mediated PSA inhibition: in presence of enzalutamide (MDV)
Procedure: PSA protein expression was determined by ELISA assay. * denotes p<0.05.

wild-type AR = target: T1, wild-type AR (Homo sapiens, UniProt P10275); assay: AR transactivation luciferase assay in HEK 293 cells, wild-type AR; settings: luciferase reporter, FIG. 5A
T1 construct: expressed in transfected cells; host or cells: HEK 293
Procedure: (§1) HEK 293 cells were transiently transfected with expression vectors encoding the corresponding mutant AR and an androgen-responsive luciferase reporter gene construct. […] Luciferase activity was then determined.

AR-V7 [1] = target: T2, AR-V7 (Homo sapiens, UniProt P10275); assay: AR transactivation luciferase assay in HEK 293 cells, AR-V7; settings: luciferase reporter, FIG. 5B
T2 sequence (P10275 1-644 isoform P10275-3): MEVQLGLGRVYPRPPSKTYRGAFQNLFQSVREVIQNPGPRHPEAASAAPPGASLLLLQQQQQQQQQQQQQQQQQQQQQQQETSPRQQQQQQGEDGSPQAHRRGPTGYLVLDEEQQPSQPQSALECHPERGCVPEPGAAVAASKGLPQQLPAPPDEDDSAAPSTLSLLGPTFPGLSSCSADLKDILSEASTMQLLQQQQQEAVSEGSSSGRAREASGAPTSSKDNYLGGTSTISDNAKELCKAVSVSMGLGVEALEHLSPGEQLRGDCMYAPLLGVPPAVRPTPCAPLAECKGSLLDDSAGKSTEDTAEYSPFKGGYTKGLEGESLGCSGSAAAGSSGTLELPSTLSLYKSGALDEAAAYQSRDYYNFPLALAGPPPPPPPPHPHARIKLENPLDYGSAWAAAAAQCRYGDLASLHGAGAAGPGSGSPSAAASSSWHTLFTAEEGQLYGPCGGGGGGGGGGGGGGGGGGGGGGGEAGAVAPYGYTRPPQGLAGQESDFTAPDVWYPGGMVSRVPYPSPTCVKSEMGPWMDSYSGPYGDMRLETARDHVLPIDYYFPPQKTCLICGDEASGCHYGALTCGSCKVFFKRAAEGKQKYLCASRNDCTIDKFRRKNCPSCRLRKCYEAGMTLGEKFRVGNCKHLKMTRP
Procedure: as §1

T878A AR mutant = target: T3, T878A AR mutant (Homo sapiens, UniProt P10275, T878A); assay: AR transactivation luciferase assay in HEK 293 cells, T878A; settings: luciferase reporter, FIG. 5C
T3 construct: expressed in transfected cells; host or cells: HEK 293
Procedure: as §1

V716M AR mutant = target: T4, V716M AR mutant (Homo sapiens, UniProt P10275, V716M); assay: AR transactivation luciferase assay in HEK 293 cells, V716M; settings: luciferase reporter, FIG. 5E
T4 construct: expressed in transfected cells; host or cells: HEK 293
Procedure: as §1

L702H AR mutant = target: T5, L702H AR mutant (Homo sapiens, UniProt P10275, L702H); assay: AR transactivation luciferase assay in HEK 293 cells, L702H; settings: luciferase reporter, FIG. 5F
T5 construct: expressed in transfected cells; host or cells: HEK 293
Procedure: as §1

CWR22Rv1 cells = assay: Cell growth assay (cell numbers), CWR22Rv1; settings: for synergy with abiraterone in inhibiting cell growth: CWR22Rv1, analog 0.25 μM + abiraterone 5 μM; for cell growth, combination with abiraterone: CWR22Rv1, analog 0.25 μM + abiraterone 5 μM, 0, 3, 5 days; for cell growth, combination with abiraterone / cell growth, combination with enzalutamide: FIGS. 9, 11; for cell growth, combination with bicalutamide: CWR22Rv1, analog 0.25 μM + bicalutamide 20 μM, 0, 3, 5 days; for synergy with enzalutamide in inhibiting cell growth: CWR22Rv1, analog 0.25 μM + enzalutamide 20 μM; for cell growth, combination with enzalutamide: CWR22Rv1, analog 0.25 μM + enzalutamide 20 μM, 0, 3, 5 days; for cell growth, niclosamide analog alone: CWR22Rv1, analog 0.25 μM, 0, 3, 5 days, FIGS. 9, 11, 12
Procedure: DMSO treatment was used as a negative control. Total cell numbers were counted at 0, 3, and 5 days.
DMSO treatment was used as a negative control. Total cell numbers were counted at 0, 3, and 5 days. […]
The cell growth was determined at 3,5 days. […] The cell growth was determined at 3,5 days.

C4-2B MDVR cells = assay: Cell growth assay (cell numbers), C4-2B MDVR; settings: for cell proliferation, combination with enzalutamide (MDV) / cell growth: C4-2B MDVR, 48 hours; for cell proliferation, combination with enzalutamide (MDV): 0.5 μM + enzalutamide, FIG. 7B; for cell growth: increasing doses of niclosamide/analogs, FIG. 6
C4-2B AbiR cells = assay: Cell growth assay (cell numbers), C4-2B AbiR; settings: 0.5 μM + enzalutamide, 48 hours, FIG. 7C
C4-2BMDVR cells = assay: ELISA cell death (apoptosis) assay; settings: FIG. 8; for cell apoptosis: compound alone, analogs compared with niclosamide
Procedure: To further examine the anti-cancer effects of these compounds, an ELISA cell death assay was performed.

AR-V3 = assay: PSA-luc assay in C4-2B cells, AR-V3; settings: FBS, 1 μM overnight, FIG. 14C
Source text: (§2) C4-2B cells were cotransfected with pcDNA, with or without AR-V1, AR-V3, AR-V7, AR-V9 or AR-V12, and with PSA-E/P-luciferase plasmids in FBS condition.

AR-V7 [2] = target: T2, AR-V7; assay: PSA-luc assay in C4-2B cells, AR-V7; settings: FBS, 1 μM overnight, FIG. 14D
Source text: as §2

AR-V9 = target: T6, AR-V9 (Homo sapiens, UniProt P10275, DEL470-473/INS56QQQQQ/L57Q); assay: PSA-luc assay in C4-2B cells, AR-V9; settings: FBS, 1 μM overnight, FIG. 14E
T6 construct: expressed in transfected cells; host or cells: C4-2B
Source text: as §2

AR-V12 = target: T7, AR-V12 (Homo sapiens, UniProt P10275); assay: PSA-luc assay in C4-2B cells, AR-V12; settings: FBS, 1 μM overnight, FIG. 14F
T7 construct: expressed in transfected cells; host or cells: C4-2B
Source text: as §2

AR variants [3] = assay: AR variant protein degradation (cycloheximide, MG132, ubiquitin IP) in CWR22Rv1 cells; settings: FIG. 15
Procedure: (§3) “AR-Variants” represents a combination of all forms of AR.
(§4) To determine if the small molecule modulators affect AR-V7 protein expression via protein degradation, CWR22Rv1 and C4-2B MDVR cells were treated with cycloheximide (CHX) and the half-life of AR-V7 protein was measured.
After 0, 2, 4, and 8 hours, whole cell lysate was collected and subjected to Western blot. The half-life of AR-V7 was then calculated.
Subsequently, the whole cell lysate was collected and subjected to Western blot.
For the data shown in FIG. 15C, CWR22Rv1 cells were treated with Nic, Compound 7, or Compound 31. Subsequently, whole cell lysate was immunoprecipitated with an AR antibody and blotted with ubiquitin and AR antibodies.

AR variants [4] = assay: AR variant protein degradation (cycloheximide, MG132, ubiquitin IP) in C4-2B MDVR cells; settings: FIG. 16
Procedure: as §3, §4
After 0, 2, 4, and 8 hours, whole cell lysate was collected and subjected to Western blot. Half-life of AR-V7 was then calculated.
Whole cell lysate was subsequently collected and subjected to Western blot.
Whole cell lysate was immunoprecipitated with an AR antibody and blot with ubiquitin and AR antibodies.

MDA-MB-468 cells = assay: Breast cancer cell growth, MDA-MB-468; settings: three days, FIG. 20A
MCF-7 cells = assay: Breast cancer cell growth, MCF-7; settings: three days, FIG. 20B

| Structure (SMILES) | PSA expression (PSA) | enzalutamide-mediated PSA inhibition (PSA) | wild-type AR transactivation (wild-type AR) | AR-V7 transactivation (AR-V7 [1]) | T878A mutant AR transactivation (T878A AR mutant) | V716M mutant AR transactivation (V716M AR mutant) | L702H mutant AR transactivation (L702H AR mutant) | synergy with abiraterone in inhibiting cell growth (CWR22Rv1 cells) | cell growth, combination with abiraterone (CWR22Rv1 cells) | cell growth, combination with bicalutamide (CWR22Rv1 cells; FIG. 12) | synergy with enzalutamide in inhibiting cell growth (CWR22Rv1 cells) | cell growth, combination with enzalutamide (CWR22Rv1 cells) | cell growth, niclosamide analog alone (CWR22Rv1 cells) | cell proliferation, combination with enzalutamide (MDV) (C4-2B MDVR cells) | cell growth (C4-2B MDVR cells) | cell proliferation, combination with enzalutamide (MDV) (C4-2B AbiR cells) | cell apoptosis (C4-2BMDVR cells) | apoptotic cell death, combination with enzalutamide (MDV) (C4-2BMDVR cells) | AR-V3-mediated PSA-luc activity (AR-V3) | AR-V7-mediated PSA-luc activity (AR-V7 [2]) | also measured |
| --- | --- | --- | --- | --- | --- | --- | --- | --- | --- | --- | --- | --- | --- | --- | --- | --- | --- | --- | --- | --- | --- |
| O=C(Nc1ccc(C(F)(F)F)cc1Cl)c1cc(Cl)ccc1O [Compound 7] | inhibited | further enhanced | blocked | significantly blocked | significantly blocked | significantly blocked | significantly blocked | able to synergize | able to significantly inhibit | able to significantly inhibit | able to synergize | able to significantly inhibit | None of Compounds 1, 7, 30, 31, or 34 alone were able to inhibit | further inhibited | able to inhibit cell growth in a dose-dependent manner | further inhibited | further enhanced | further increased | inhibited | inhibited | enhancement of abiraterone treatment (cell growth) (CWR22Rv1 cells; CWR22Rv1, 0.5 μM Compound 7 + 5 μM abiraterone, 3,5 days, FIG. 17B): significantly enhanced; enhancement of apalutamide treatment (cell growth) (CWR22Rv1 cells; CWR22Rv1, 0.5 μM Compound 7 + 20 μM apalutamide, 3,5 days, FIG. 17A): significantly enhanced; AR-V9-mediated PSA-luc activity (AR-V9): inhibited; AR-V12-mediated PSA-luc activity (AR-V12): inhibited; AR variant degradation via the proteasome-ubiquitination system (AR variants [3]): degraded; AR variant degradation via the proteasome-ubiquitination system (AR variants [4]): degraded; breast cancer cell growth (MDA-MB-468 cells): inhibited; breast cancer cell growth (MCF-7 cells): inhibited |
| C=CC(=O)Oc1ccc(Cl)cc1C(=O)Nc1ccc([N+](=O)[O-])cc1Cl [Compound 31] | inhibited; also recorded: strongest effect | further enhanced | blocked | significantly blocked | significantly blocked | significantly blocked | significantly blocked | able to synergize | significantly inhibited | able to significantly inhibit | able to synergize | significantly inhibited | None of Compounds 1, 7, 30, 31, or 34 alone were able to inhibit | further inhibited | able to inhibit cell growth in a dose-dependent manner | further inhibited | further enhanced | further increased | inhibited | inhibited | synergy with bicalutamide in inhibiting cell growth (CWR22Rv1 cells; CWR22Rv1, analog 0.25 μM + bicalutamide 20 μM, FIG. 12): able to synergize; synergy with abiraterone in inhibiting cell growth (C4-2B MDVR cells; C4-2BMDVR, analog 0.25 μM + abiraterone 5 μM, FIG. 10): able to synergize; synergy with enzalutamide in inhibiting cell growth (C4-2B MDVR cells; C4-2BMDVR, analog 0.25 μM + enzalutamide 20 μM, FIG. 10): able to synergize; AR-V9-mediated PSA-luc activity (AR-V9): inhibited; AR-V12-mediated PSA-luc activity (AR-V12): inhibited; AR variant degradation via the proteasome-ubiquitination system (AR variants [3]): degraded; AR variant degradation via the proteasome-ubiquitination system (AR variants [4]): degraded; breast cancer cell growth (MDA-MB-468 cells): inhibited; breast cancer cell growth (MCF-7 cells): inhibited |
